Reference: patent publication US20150307520A1, “NOVEL HETEROARYL AND HETEROCYCLE COMPOUNDS, COMPOSITIONS AND METHODS THEREOF” (HUTCHISON MEDIPHARMA LIMITED, priority 2012, published 2015)

What was measured:
Assay type in all cases: biochemical
[1] = biological target: p110β/p85α (Homo sapiens, UniProt P42338); test: Transcreener KINASE Assay, kinase inhibition of p110β/p85α; settings: for PI3Kβ IH % @ 1 uM: 1 uM test compound; for IC50: read-out: PI3Kβ IC50
In short: (§1)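 Kinase reactions run 80 min at room temperature, pH buffered with 50 mM HEPES plus 3 mM MgCl2 and 0.03% CHAPS; the PIP2/ATP mix added was 30 uM/10 uM. Generated ADP is then read by FP immunoassay.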

[2] = biological target: p110δ/p85α (Homo sapiens, UniProt O00329); test: Transcreener KINASE Assay, kinase inhibition of p110δ/p85α; settings: for PI3Kδ IH % @ 1 uM: 1 uM test compound; for IC50: read-out: PI3Kδ IC50
In short: as §1

[3] = biological target: p110γ (Homo sapiens, UniProt P48736); test: Transcreener KINASE Assay, kinase inhibition of p110γ; settings: for PI3Kγ IH % @ 1 uM: 1 uM test compound; for IC50: read-out: PI3Kγ IC50
In short: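 Kinase activity is monitored as ADP formation, detected by competitive fluorescence polarization with a far-red tracer. Recombinant isoform complexes react for 80 min at room temperature before a 60 min detection step. IC50 values come from fitted dose-response data.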

p110γ, sequence (P48736 whole entry, canonical isoform): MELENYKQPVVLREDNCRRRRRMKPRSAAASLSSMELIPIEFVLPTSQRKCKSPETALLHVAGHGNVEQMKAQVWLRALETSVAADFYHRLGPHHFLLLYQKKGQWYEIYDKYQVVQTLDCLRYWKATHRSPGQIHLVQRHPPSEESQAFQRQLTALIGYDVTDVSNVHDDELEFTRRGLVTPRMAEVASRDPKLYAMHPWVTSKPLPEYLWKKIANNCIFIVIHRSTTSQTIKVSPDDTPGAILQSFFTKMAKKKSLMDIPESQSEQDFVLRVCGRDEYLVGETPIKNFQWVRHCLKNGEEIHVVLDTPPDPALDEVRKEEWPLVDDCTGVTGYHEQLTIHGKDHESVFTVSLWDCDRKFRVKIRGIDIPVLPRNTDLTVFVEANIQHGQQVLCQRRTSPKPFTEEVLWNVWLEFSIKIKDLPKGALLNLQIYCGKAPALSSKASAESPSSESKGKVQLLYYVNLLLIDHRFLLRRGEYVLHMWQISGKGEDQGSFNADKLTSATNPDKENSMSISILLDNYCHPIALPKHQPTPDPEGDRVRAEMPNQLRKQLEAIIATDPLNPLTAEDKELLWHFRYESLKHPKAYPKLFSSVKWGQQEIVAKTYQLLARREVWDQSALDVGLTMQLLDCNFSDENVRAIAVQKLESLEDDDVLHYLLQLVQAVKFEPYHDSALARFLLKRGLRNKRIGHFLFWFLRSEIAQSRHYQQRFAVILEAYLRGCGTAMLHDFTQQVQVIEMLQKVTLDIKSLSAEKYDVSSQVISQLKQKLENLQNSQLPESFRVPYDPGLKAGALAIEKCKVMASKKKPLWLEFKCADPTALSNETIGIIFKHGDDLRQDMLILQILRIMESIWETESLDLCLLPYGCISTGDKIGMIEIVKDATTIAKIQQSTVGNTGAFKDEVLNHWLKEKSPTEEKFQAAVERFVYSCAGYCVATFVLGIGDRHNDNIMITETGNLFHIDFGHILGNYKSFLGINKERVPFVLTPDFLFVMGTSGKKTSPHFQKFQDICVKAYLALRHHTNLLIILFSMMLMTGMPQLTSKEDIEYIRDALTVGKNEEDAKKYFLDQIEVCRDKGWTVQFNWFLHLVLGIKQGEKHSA
p110δ/p85α, sequence (O00329 whole entry): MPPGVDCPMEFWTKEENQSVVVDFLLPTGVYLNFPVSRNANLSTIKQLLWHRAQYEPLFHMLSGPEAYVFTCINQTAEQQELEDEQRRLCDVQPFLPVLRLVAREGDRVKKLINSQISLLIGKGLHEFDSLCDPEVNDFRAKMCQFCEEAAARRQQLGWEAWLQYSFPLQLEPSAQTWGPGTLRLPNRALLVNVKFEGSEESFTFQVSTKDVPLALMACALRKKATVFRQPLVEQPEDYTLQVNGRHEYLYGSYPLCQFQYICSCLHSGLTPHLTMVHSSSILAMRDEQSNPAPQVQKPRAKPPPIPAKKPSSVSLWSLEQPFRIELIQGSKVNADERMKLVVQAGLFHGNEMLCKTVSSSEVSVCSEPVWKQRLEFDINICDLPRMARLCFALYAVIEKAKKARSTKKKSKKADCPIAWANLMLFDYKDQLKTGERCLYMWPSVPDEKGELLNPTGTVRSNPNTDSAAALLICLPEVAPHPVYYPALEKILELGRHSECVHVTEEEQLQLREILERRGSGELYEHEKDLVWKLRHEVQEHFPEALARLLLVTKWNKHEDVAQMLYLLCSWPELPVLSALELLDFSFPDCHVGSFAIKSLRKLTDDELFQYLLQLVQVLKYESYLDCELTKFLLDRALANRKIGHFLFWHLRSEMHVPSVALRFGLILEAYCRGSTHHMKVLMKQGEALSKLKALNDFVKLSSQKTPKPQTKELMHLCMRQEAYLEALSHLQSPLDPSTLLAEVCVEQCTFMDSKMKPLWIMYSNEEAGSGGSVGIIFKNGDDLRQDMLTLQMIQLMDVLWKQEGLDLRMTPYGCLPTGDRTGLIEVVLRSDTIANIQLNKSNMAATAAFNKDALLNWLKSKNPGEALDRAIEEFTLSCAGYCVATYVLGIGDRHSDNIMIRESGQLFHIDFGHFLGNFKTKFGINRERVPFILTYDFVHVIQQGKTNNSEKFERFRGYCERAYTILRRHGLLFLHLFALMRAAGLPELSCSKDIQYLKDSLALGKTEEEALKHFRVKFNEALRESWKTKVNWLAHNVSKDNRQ
p110δ/p85α, sequence (P27986 whole entry partner): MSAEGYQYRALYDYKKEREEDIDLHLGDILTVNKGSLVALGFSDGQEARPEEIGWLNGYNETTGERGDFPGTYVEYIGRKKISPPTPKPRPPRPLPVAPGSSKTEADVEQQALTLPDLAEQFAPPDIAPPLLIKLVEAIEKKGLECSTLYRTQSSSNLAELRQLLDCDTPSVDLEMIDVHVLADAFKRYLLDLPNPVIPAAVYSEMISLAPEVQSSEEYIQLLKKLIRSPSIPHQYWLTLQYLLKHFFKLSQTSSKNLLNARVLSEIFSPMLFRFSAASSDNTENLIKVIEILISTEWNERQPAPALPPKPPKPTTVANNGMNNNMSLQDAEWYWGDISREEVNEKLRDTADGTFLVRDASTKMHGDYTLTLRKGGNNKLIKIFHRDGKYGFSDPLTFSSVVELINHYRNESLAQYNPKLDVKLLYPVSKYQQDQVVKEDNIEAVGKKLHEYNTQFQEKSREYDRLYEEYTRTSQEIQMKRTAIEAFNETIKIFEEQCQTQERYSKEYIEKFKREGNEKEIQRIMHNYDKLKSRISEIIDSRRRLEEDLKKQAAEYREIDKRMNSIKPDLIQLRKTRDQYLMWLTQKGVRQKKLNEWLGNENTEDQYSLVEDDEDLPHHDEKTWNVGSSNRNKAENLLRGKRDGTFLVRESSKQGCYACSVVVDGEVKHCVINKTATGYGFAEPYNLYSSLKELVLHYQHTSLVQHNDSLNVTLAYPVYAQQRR
p110β/p85α, sequence (P42338 whole entry): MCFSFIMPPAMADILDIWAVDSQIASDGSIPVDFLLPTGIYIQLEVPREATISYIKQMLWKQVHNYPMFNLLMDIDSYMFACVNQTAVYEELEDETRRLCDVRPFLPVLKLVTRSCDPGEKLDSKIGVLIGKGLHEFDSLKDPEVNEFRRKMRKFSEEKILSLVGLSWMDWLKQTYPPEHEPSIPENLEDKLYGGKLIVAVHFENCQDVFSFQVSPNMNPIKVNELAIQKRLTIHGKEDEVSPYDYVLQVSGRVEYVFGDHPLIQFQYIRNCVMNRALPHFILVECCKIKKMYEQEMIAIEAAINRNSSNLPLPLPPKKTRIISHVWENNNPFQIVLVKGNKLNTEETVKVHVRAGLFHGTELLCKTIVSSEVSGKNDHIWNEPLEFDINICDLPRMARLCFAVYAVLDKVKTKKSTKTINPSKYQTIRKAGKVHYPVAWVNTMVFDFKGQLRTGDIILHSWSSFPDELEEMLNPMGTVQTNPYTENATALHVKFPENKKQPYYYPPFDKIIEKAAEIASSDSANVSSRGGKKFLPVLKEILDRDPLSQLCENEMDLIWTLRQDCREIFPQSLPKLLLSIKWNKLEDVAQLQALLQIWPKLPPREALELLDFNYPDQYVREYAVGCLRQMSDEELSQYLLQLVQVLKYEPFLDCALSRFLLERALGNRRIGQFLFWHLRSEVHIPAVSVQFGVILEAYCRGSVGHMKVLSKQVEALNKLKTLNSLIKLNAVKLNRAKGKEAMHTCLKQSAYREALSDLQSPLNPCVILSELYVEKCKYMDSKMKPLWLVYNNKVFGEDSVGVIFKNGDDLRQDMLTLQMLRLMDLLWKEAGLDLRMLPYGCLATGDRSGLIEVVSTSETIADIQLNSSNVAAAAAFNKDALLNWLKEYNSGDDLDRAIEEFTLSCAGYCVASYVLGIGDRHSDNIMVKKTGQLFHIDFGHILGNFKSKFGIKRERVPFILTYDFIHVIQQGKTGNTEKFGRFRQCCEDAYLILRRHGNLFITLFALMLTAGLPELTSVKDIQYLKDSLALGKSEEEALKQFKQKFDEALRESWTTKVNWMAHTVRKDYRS
p110β/p85α, sequence (P27986 2-724 partner): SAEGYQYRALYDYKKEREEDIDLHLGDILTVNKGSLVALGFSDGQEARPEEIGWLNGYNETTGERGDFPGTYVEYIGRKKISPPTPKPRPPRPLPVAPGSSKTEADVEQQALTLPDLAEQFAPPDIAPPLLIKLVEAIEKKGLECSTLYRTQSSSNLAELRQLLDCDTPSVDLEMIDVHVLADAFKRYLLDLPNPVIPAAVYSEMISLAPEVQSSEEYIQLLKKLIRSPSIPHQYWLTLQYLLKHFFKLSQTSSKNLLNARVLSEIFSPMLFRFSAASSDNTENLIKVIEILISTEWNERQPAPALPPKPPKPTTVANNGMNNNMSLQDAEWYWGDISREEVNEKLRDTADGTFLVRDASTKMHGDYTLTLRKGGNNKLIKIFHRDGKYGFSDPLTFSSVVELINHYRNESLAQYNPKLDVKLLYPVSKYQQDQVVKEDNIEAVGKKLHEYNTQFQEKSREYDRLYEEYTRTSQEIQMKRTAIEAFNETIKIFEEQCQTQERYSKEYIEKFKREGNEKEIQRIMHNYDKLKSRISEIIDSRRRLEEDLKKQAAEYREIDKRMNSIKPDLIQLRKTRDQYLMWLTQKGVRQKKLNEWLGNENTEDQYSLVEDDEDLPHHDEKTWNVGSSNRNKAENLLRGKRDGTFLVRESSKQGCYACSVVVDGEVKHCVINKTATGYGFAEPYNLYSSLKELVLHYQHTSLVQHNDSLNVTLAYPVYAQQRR

CC(=O)c1cnc(N)nc1N1CC(C)(C)[C@H]1c1nn2ccc(Cl)c2c(=O)n1-c1ccccc1 [Compound 485, (S)-2-(1-(5-acetyl-2-aminopyrimidin-4-yl)-3,3-dimethylazetidin-2-yl)-5-chloro-3-phenylpyrrolo[2,1-f][1,2,4]triazin-4(3H)-one]
PI3Kβ IH % @ 1 uM [1]: −2.1% | PI3Kδ IH % @ 1 uM [2]: >100% | IC50 [2]: 0.096 µM | PI3Kγ IH % @ 1 uM [3]: 45.2%

N#Cc1c[nH]c2ncnc(N3CC[C@H]3c3nn4ccc(C(F)(F)F)c4c(=O)n3-c3ccccc3)c12 [Compound 488]
PI3Kβ IH % @ 1 uM [1]: 29.1% | PI3Kδ IH % @ 1 uM [2]: 95.9% | IC50 [2]: 0.018 µM | PI3Kγ IH % @ 1 uM [3]: 87.3% | IC50 [3]: 0.063 µM

C[C@H]1CN(c2nc(N)ncc2C#N)[C@@H]1c1nn2ccc(C(F)(F)F)c2c(=O)n1-c1ccccc1 [Compound 490]
PI3Kβ IH % @ 1 uM [1]: 33.4% | PI3Kδ IH % @ 1 uM [2]: 96.6% | IC50 [2]: 0.054 µM | PI3Kγ IH % @ 1 uM [3]: >100% | IC50 [3]: 0.015 µM

Cc1nc(N)nc(N2CC[C@H]2c2nn3ccc(C#N)c3c(=O)n2-c2ccccc2)c1C#N [Compound 497, (S)-2-(1-(2-amino-5-cyano-6-methylpyrimidin-4-yl)azetidin-2-yl)-4-oxo-3-phenyl-3,4-dihydropyrrolo[2,1-f][1,2,4]triazine-5-carbonitrile]
PI3Kβ IH % @ 1 uM [1]: 67.6% | PI3Kδ IH % @ 1 uM [2]: >100% | IC50 [2]: 0.006 µM | PI3Kγ IH % @ 1 uM [3]: 91.1% | IC50 [3]: 0.011 µM

Cc1nc(N)nc(N2C[C@H](C)[C@H]2c2nn3ccc(C#N)c3c(=O)n2-c2ccccc2)c1C#N [Compound 499]
PI3Kβ IH % @ 1 uM [1]: 86.1% | IC50 [1]: 0.084 µM | PI3Kδ IH % @ 1 uM [2]: >100% | IC50 [2]: 0.002 µM | PI3Kγ IH % @ 1 uM [3]: 96.0% | IC50 [3]: 0.005 µM

CC(=O)c1cnc(N)nc1N1C[C@H](C)[C@H]1c1nn2ccc(C#N)c2c(=O)n1-c1ccccc1 [Compound 500]
PI3Kβ IH % @ 1 uM [1]: 71.5% | IC50 [1]: 0.674 µM | PI3Kδ IH % @ 1 uM [2]: 95.4% | IC50 [2]: 0.006 µM | PI3Kγ IH % @ 1 uM [3]: 98.7% | IC50 [3]: 0.007 µM

C[C@H]1CN(c2nc(N)ncc2C#N)[C@@H]1c1nn2ccc(C#N)c2c(=O)n1-c1ccccc1 [Compound 501]
PI3Kβ IH % @ 1 uM [1]: 24.0% | PI3Kδ IH % @ 1 uM [2]: 91.8% | IC50 [2]: 0.078 µM | PI3Kγ IH % @ 1 uM [3]: >100%

Cc1nc(N)nc(N2CC[C@H]2c2nn3c(C)cc(Cl)c3c(=O)n2-c2ccccc2)c1C#N [Compound 502]
PI3Kβ IH % @ 1 uM [1]: 33.6% | PI3Kδ IH % @ 1 uM [2]: 66.2% | PI3Kγ IH % @ 1 uM [3]: 66.4%

CC(=O)c1cnc(N)nc1N1CC[C@H]1c1nn2c(C)cc(Cl)c2c(=O)n1-c1ccccc1 [Compound 503]
PI3Kβ IH % @ 1 uM [1]: 6.2% | PI3Kδ IH % @ 1 uM [2]: 49.2% | PI3Kγ IH % @ 1 uM [3]: 63.0%

C[C@H]1CN(c2nc(N)nc(N)c2C#N)C1c1nn2ccc(Cl)c2c(=O)n1-c1cccc(F)c1 (some centres unmarked) [Compound 504]
PI3Kβ IH % @ 1 uM [1]: 75.6% | IC50 [1]: 0.121 µM | PI3Kδ IH % @ 1 uM [2]: >100% | IC50 [2]: 0.002 µM | PI3Kγ IH % @ 1 uM [3]: >100% | IC50 [3]: 0.002 µM
